Laboratory results taken from patent US20230127944A1, “BROAD-SPECTRUM CARBAPENEMS” (priority 2019, published 2023).
In brackets after ≈: the same amount, converted by molar mass.

Columns and labels:
Type in all cases: cell-based
[1] = test system: P. aeruginosa 35151 (hyper-permeable strain); assay: broth microdilution MIC assay, P. aeruginosa 35151; settings: Pseudomonas aeruginosa, read-out: MIC, P. aeruginosa 35151
Experimental: (§1) To determine the ability of test compounds to inhibit the growth of bacterial strains, classic cell-based broth microdilution MIC assays were employed. MIC assays are performed according to CLSI methods except where otherwise noted (CLSI, 2011 and CLSI, 2009). The reference strains S. aureus ATCC 29213 (methicillin sensitive), S. aureus ATCC 33591 (methicillin-resistant), E. coli ATCC 25922 (wild-type/QC strain), P. aeruginosa ATCC 27853 (wild-type/QC strain), and the clinical isolate P. aeruginosa PA 8 were used to determine the ability of the exemplary carbapenem compounds to inhibit bacterial growth. An expanded panel of methicillin resistance S. aureus (MRSA) and Pseudomonas was also used to determine the ability of exemplary carbapenem compounds to inhibit bacterial growth across a broader representation of those species. To determine activity in MRSA and in addition to S. aureus ATCC 33591, S. aureus USA 300 and USA 600, some of the most common clones found to cause human infection, were also used. To further gauge the impact on the carbapenem compounds due to various resistance mechanisms in Pseudomonas, the following strains were included: P. aeruginosa 35151 (hyper-permeable strain), P. aeruginosa ΔmexAB-OprM (an efflux pump knockout), and P. aeruginosa Paβ-173 (a clinical isolate of reduced carbapenem susceptibility). Briefly, cryo-preserved bacterial cultures of clinical strains are streaked for isolation on appropriate agar medium, in this case Mueller Hinton II agar. Following incubation to allow formation of colonies, these plates are sealed with parafilm and stored refrigerated for up to two weeks. For preparation of assay inocula and to ensure low variability, at least 5 colonies are picked from the agar plates with an inoculating loop and aseptically transferred to a culture tube containing 3 mL of Mueller-Hinton Broth (supplemented with divalent cations to required levels based on Manufacturers' specification). The broth culture is grown for 3-5 hours at 37° C. with shaking at 200 rpm. Meanwhile, 2-fold serial dilutions of test compounds are conducted in a 96 well plate with a final volume of 75 μL per well at 2-fold the final desired concentration. After the dilution plates are set up the growing cultures are then diluted in a cuvette containing MH II broth and the optical density is measured at 600 nm. Inocula are diluted such that 75 μL of this culture in Mueller-Hinton Broth results in a starting bacterial concentration of 5×10^5 CFU/mL when added to the dilution plates. The plates are incubated 16-20 hours at 37° C. The MIC is read visually as the lowest concentration well with no bacterial growth.

[2] = test system: P. aeruginosa ΔmexAB-OprM (an efflux pump knockout); assay: broth microdilution MIC assay, P. aeruginosa ΔmexAB-OprM; settings: Pseudomonas aeruginosa, read-out: MIC, P. aeruginosa ΔmexAB-OprM
Experimental: as §1

S. aureus USA 300 = assay: broth microdilution MIC assay, S. aureus USA300; settings: Staphylococcus aureus; S. aureus USA300 (MRSA); read-out: MIC, S. aureus USA300
Experimental: as §1

P. aeruginosa Paeβ-17 = assay: broth microdilution MIC assay, P. aeruginosa Paeβ-17; settings: Pseudomonas aeruginosa, read-out: MIC, P. aeruginosa Paeβ-17
Experimental: as §1

[3] = test system: E. coli ATCC 25922 (wild-type/QC strain); assay: broth microdilution MIC assay, E. coli 25922; settings: Escherichia coli, ATCC25922; read-out: MIC, E. coli 25922
Experimental: as §1

S. aureus USA 600 = assay: broth microdilution MIC assay, S. aureus USA600; settings: Staphylococcus aureus; S. aureus USA600 (MRSA); read-out: MIC, S. aureus USA600
Experimental: as §1

[4] = test system: P. aeruginosa ATCC 27853 (wild-type/QC strain); assay: broth microdilution MIC assay, P. aeruginosa 27853; settings: Pseudomonas aeruginosa, ATCC27853; read-out: MIC, P. aeruginosa 27853
Experimental: as §1

[5] = test system: S. aureus ATCC 33591 (methicillin-resistant); assay: broth microdilution MIC assay, S. aureus 33591; settings: Staphylococcus aureus, ATCC33591; S. aureus 33591, methicillin-resistant; read-out: MIC, S. aureus 33591
Experimental: as §1

| Structure (SMILES) | MIC [1] [µg/mL] | MIC [2] [µg/mL] | MIC (S. aureus USA 300) [µg/mL] | MIC (P. aeruginosa Paeβ-17) [µg/mL] | MIC [3] [µg/mL] | MIC (S. aureus USA 600) [µg/mL] | MIC [4] [µg/mL] | MIC [5] [µg/mL] |
| --- | --- | --- | --- | --- | --- | --- | --- | --- |
| C[C@@H](O)[C@H]1C(=O)N2C(C(=O)O)=C(SC3CN([C@H]4CC[C@@H](N)C4)C3)[C@H](C)[C@H]12 [Example 7, (4R,5S,6S)-3-((1-((1S,3R)-3-aminocyclopentyl)azetidin-3-yl)thio)-6-((R)-1-hydroxyethyl)-4-methyl-7-oxo-1-azabicyclo[3.2.0]hept-2-ene-2-carboxylic acid] | < 1 | 1 to 4 (≈ 2.62 to 10.5 µM) | 1 to 4 (≈ 2.62 to 10.5 µM) | 8 to 32 (≈ 21 to 83.9 µM) | < 1 | 1 to 4 (≈ 2.62 to 10.5 µM) | 8 to 32 (≈ 21 to 83.9 µM) | 8 to 32 (≈ 21 to 83.9 µM) |
| C[C@@H](O)[C@H]1C(=O)N2C(C(=O)O)=C(SC3CN([C@@H]4CC[C@@H](N)C4)C3)[C@H](C)[C@H]12 [Example 8, (4R,5S,6S)-3-((1-((1R,3R)-3-aminocyclopentyl)azetidin-3-yl)thio)-6-((R)-1-hydroxyethyl)-4-methyl-7-oxo-1-azabicyclo[3.2.0]hept-2-ene-2-carboxylic acid] | < 1 | 1 to 4 (≈ 2.62 to 10.5 µM) | 1 to 4 (≈ 2.62 to 10.5 µM) | 8 to 32 (≈ 21 to 83.9 µM) | < 1 | 1 to 4 (≈ 2.62 to 10.5 µM) | 1 to 4 (≈ 2.62 to 10.5 µM) | 1 to 4 (≈ 2.62 to 10.5 µM) |
| C[C@@H](O)[C@H]1C(=O)N2C(C(=O)O)=C(SC3CN([C@H]4CC[C@@H](NC(=N)N)C4)C3)[C@H](C)[C@H]12 [Example 9, (4R,5S,6S)-3-((1-((1S,3R)-3-guanidinocyclopentyl)azetidin-3-yl)thio)-6-((R)-1-hydroxyethyl)-4-methyl-7-oxo-1-azabicyclo[3.2.0]hept-2-ene-2-carboxylic acid] | < 1 | < 1 | < 1 | 8 to 32 (≈ 18.9 to 75.6 µM) | < 1 | < 1 | 1 to 4 (≈ 2.36 to 9.44 µM) | 1 to 4 (≈ 2.36 to 9.44 µM) |
| C[C@@H](O)[C@H]1C(=O)N2C(C(=O)O)=C(SC3CN([C@@H]4CC[C@@H](NC(=N)N)C4)C3)[C@H](C)[C@H]12 [Example 10, (4R,5S,6S)-3-((1-((1R,3R)-3-guanidinocyclopentyl)azetidin-3-yl)thio)-6-((R)-1-hydroxyethyl)-4-methyl-7-oxo-1-azabicyclo[3.2.0]hept-2-ene-2-carboxylic acid] | < 1 | 1 to 4 (≈ 2.36 to 9.44 µM) | 1 to 4 (≈ 2.36 to 9.44 µM) | 8 to 32 (≈ 18.9 to 75.6 µM) | < 1 | 1 to 4 (≈ 2.36 to 9.44 µM) | 8 to 32 (≈ 18.9 to 75.6 µM) | 1 to 4 (≈ 2.36 to 9.44 µM) |
| C[C@@H](O)[C@H]1C(=O)N2C(C(=O)O)=C(SC3CN([C@H]4CC[C@H](NC(=N)N)C4)C3)[C@H](C)[C@H]12 [Example 11, (4R,5S,6S)-3-((1-((1S,3S)-3-guanidinocyclopentyl)azetidin-3-yl)thio)-6-((R)-1-hydroxyethyl)-4-methyl-7-oxo-1-azabicyclo[3.2.0]hept-2-ene-2-carboxylic acid] | < 1 | 1 to 4 (≈ 2.36 to 9.44 µM) | 1 to 4 (≈ 2.36 to 9.44 µM) | 8 to 32 (≈ 18.9 to 75.6 µM) | < 1 | < 1 | 1 to 4 (≈ 2.36 to 9.44 µM) | 1 to 4 (≈ 2.36 to 9.44 µM) |
| C[C@@H](O)[C@H]1C(=O)N2C(C(=O)O)=C(SC3CN([C@@H]4CC[C@H](NC(=N)N)C4)C3)[C@H](C)[C@H]12 [Example 12, (4R,5S,6S)-3-((1-((1R,3S)-3-guanidinocyclopentyl)azetidin-3-yl)thio)-6-((R)-1-hydroxyethyl)-4-methyl-7-oxo-1-azabicyclo[3.2.0]hept-2-ene-2-carboxylic acid] | < 1 | 1 to 4 (≈ 2.36 to 9.44 µM) | 1 to 4 (≈ 2.36 to 9.44 µM) | 8 to 32 (≈ 18.9 to 75.6 µM) | < 1 | 1 to 4 (≈ 2.36 to 9.44 µM) | 1 to 4 (≈ 2.36 to 9.44 µM) | 1 to 4 (≈ 2.36 to 9.44 µM) |
| C[C@@H](O)[C@H]1C(=O)N2C(C(=O)O)=C(SC3CN([C@H]4CCC[C@H](N)C4)C3)[C@H](C)[C@H]12 [Example 13, (4R,5S,6S)-3-((1-((1S,3S)-3-aminocyclohexyl)azetidin-3-yl)thio)-6-((R)-1-hydroxyethyl)-4-methyl-7-oxo-1-azabicyclo[3.2.0]hept-2-ene-2-carboxylic acid] | < 1 | 1 to 4 (≈ 2.53 to 10.1 µM) | 1 to 4 (≈ 2.53 to 10.1 µM) | 8 to 32 (≈ 20.2 to 80.9 µM) | < 1 | 1 to 4 (≈ 2.53 to 10.1 µM) | 8 to 32 (≈ 20.2 to 80.9 µM) | 8 to 32 (≈ 20.2 to 80.9 µM) |
